We go through 3 compounds from US20250296960A1, “PEPTIDE COMPOSITIONS AND METHODS OF USE THEREOF” (priority 2022, published 2025).

Entries after “also recorded” stand apart in the source; their conditions may differ. Like-named read-outs stand apart in the source and are kept apart here. Numbered stars: 1 amine (or outer) side, 2 acyl side, 3 side chain; on linkers, the order of the positions; unused ones are H or OH. Square brackets hold non-standard residues; d marks the D form. Side chains are listed from the residue outwards. Peptide text beside a SMILES is read from it. * marks the point of attachment. C18 diacid = O=C(O)CCCCCCCCCCCCCCCCC(=O)*; γGlu = O=C(O)[C@H](CCC(=O)[*:2])N[*:1]; αMeR = C[C@](N)(CCCNC(=N)N)C(=O)O; AEEA = NCCOCCOCC(=O)O; Aib = CC(C)(N)C(=O)O

In one series the target is T1, human GLP-1R (Homo sapiens, UniProt P43220).
T1 construct: host or cells: CHO-K1
T1 sequence (P43220 24-463): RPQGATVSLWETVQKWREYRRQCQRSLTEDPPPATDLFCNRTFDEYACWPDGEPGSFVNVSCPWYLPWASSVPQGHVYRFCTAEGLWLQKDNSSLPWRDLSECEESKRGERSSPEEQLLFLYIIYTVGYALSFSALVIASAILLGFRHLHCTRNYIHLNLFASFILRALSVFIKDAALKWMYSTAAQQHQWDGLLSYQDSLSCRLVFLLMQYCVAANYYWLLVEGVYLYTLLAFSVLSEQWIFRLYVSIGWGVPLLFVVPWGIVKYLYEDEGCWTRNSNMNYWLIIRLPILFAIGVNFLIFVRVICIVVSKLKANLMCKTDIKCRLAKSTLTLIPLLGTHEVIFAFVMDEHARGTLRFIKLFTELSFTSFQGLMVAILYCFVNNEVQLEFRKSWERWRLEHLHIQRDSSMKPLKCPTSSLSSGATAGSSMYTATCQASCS
Kind of series: cAMP assay (HitHunter cAMP) in GLP-1R-expressing CHO-K1 cells (GLP-1R+ cells). The conditions noted are these: for activity on GLP-1R compared to SEQ ID NO. 77, in words: Example 13; for Ratio vs. GLP-1R, GLP-1R / Relative % to native ligand, GLP-1R: Table 36. Type of series: cell-based. The gist of the method:
(§1)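 Luminescent cAMP read-out: after 30 min peptide stimulation at 37 °C in cAMP assay buffer, receptor-expressing CHO-K1 cells (seeded 7×10^3/well the night before) received antibody and detection reagents for 1 h, then Solution A for 3 h, at room temperature in the dark.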
(In general: cAMP levels reflect the balance of adenylyl cyclase and phosphodiesterase activity.)

For another series, the target named is T2, human GCGR (Homo sapiens, UniProt P47871).
T2 construct: host or cells: CHO-K1
T2 sequence (P47871 26-477): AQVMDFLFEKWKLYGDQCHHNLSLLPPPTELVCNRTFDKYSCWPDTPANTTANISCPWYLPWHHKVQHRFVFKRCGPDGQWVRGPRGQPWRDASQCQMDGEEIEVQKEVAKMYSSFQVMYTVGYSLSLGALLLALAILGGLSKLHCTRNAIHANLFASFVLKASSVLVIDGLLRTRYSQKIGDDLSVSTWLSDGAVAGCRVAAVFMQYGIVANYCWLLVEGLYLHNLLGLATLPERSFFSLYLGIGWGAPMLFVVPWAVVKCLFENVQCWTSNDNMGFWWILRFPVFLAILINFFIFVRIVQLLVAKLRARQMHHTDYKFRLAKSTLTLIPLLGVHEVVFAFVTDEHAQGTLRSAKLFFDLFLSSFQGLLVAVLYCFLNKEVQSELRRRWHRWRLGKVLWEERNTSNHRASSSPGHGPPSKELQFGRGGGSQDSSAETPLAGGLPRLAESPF
Kind of series: cAMP assay (HitHunter cAMP) in GCGR-expressing CHO-K1 cells (GCGR+ cells). The conditions noted are these: Table 36. It counts as cell-based. The method in brief:
as §1

The next series deals with T3, human GIPR (Homo sapiens, UniProt P48546).
T3 construct: host or cells: CHO-K1
T3 sequence (P48546 22-466): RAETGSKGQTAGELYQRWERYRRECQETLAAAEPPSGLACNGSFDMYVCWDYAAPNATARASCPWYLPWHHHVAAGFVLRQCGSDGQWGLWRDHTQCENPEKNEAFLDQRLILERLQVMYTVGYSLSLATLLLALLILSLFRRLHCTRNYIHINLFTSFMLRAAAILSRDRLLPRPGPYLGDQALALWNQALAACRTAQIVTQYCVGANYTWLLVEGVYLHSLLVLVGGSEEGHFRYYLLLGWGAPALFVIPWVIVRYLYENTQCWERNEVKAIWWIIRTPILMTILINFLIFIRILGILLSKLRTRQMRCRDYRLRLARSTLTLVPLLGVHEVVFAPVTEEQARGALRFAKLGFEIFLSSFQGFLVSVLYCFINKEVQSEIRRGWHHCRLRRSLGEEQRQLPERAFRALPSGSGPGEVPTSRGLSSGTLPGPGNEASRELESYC
Kind of series: cAMP assay (HitHunter cAMP) in GIPR-expressing CHO-K1 cells (GIPR+ cells). Type of series: cell-based. The conditions noted are these: for activity on GIPR compared to SEQ ID NO. 77, in words: Example 13; for Ratio vs. GLP-1R, GIPR / Relative % to native ligand, GIPR: Table 36. The method in brief: as §1

Series [1] is described as follows: In vitro enzymatic stability against FaSSIF/P (pancreatin in FaSSIF, pH 6.5). Type of series: in vitro ADME. The conditions noted are these: simulated gi fluid, pH 6.5, Half-life (min), FaSSIF/P.
A further series has as its system FaSSIF/P. The description is as above. It counts as in vitro ADME.
The format of series [2] is in vitro ADME. As to conditions: pH 7.8. The procedure:
(§2) For the stability against trypsin, the test samples were prepared by mixing stock solutions of peptide and trypsin dissolved in 50 mM PBS (pH 7.8) containing 0.02% PS80 in a weight ratio of 10:1. The test samples were incubated at 37° C. for 180 min. The sampling from test samples was proceeded at the predetermined time points (10, 30, 60, 90, 120, and 180 min) and stopped by 10% TFA solution.
(§3) Analytical HPLC was performed to determine the remaining amount on an ACQUITY Premier system (Waters, USA) with an ACQUITY CSH C18 column (Waters, USA) at 35° C. using 0.1% TFA in water and acetonitrile. The remaining amount was determined as a percentage of the peak area at the sampling time point relative to the peak area of the initial sample.

The subject of another series is trypsin. Type of series: in vitro ADME. On the procedure:
as §2, §3

Series [3] can be described thus: In vivo efficacy in CDA-HFD (NASH) mice, 4 weeks. As to conditions: Example 16. The procedure:
This study was conducted to evaluate the efficacy of SEQ ID NOs. […] SEQ ID NOs. The peptides were delivered at 0.02% PS80 in PBS and dosing volume was 10 mL/kg. Control group was administered by vehicle without peptide.
Body weight changes were monitored Q2D; serum chemistry (end); hepatic TG (end); and histological analysis (end). […]

Series [4] is described as follows: In vivo efficacy in mAMLN (obese and NASH) mice, 4 weeks. The conditions noted are these: after 4 weeks.
Series [5] has as its target human glucose-dependent insulinotropic polypeptide receptor (GIPR), expressed on CHO-K1 cells (human) (UniProt P48546). Description: cell-based or functional assay.
For series [6] the target is unchanged. Description: cell-based or functional assay. This is another data set of the same source.

A word on the half-life: it is the time needed for the level to fall by half in the phase considered. Low values mean rapid decline, high ones slow decline. Take `CSCC[C@H](NC(=O)[C@H](Cc1ccc(O)cc1)NC(=O)[C@H](CC(=O)O)NC(=O)[C@H](CC(C)C)NC(=O)[C@H](CC(C)C)NC(=O)[C@H](CCCCNC(=O)COCCOCCNC(=O)COCCOCCNC(=O)CC[C@H](NC(=O)CCCCCCCCCCCCCCCCC(=O)O)C(=O)O)NC(=O)[C@H](CO)NC(=O)[C@H](Cc1ccc(O)cc1)NC(=O)[C@H](CC(=O)O)NC(=O)[C@H](CO)NC(=O)[C@@H](NC(=O)[C@H](Cc1ccccc1)NC(=O)[C@@H](NC(=O)CNC(=O)[C@H](CCC(N)=O)NC(=O)C(C)(C)NC(=O)[C@@H](N)Cc1ccc(O)cc1)[C@@H](C)O)[C@@H](C)O)C(=O)N[C@@H](CCSC)C(=O)N[C@@H](CCC(N)=O)C(=O)N[C@@](C)(CCCNC(=N)N)C(=O)N[C@@H](CC(=O)O)C(=O)N[C@@H](Cc1ccccc1)C(=O)N[C@H](C(=O)N[C@@H](CCC(N)=O)C(=O)N[C@@H](Cc1c[nH]c2ccccc12)C(=O)N[C@@H](CC(C)C)C(=O)N[C@@H](CC(C)C)C(=O)N[C@@H](CCC(=O)O)C(=O)NCC(=O)NCC(=O)N1CCC[C@H]1C(=O)N[C@@H](CO)C(=O)N[C@@H](CO)C(=O)NCC(=O)N[C@@H](C)C(=O)N1CCC[C@H]1C(=O)N1CCC[C@H]1C(=O)N1CCC[C@H]1C(=O)N[C@@H](CO)C(N)=O)C(C)C` [compound 101] (H-Y[Aib]QGTFTSDYSK([AEEA-AEEA-γGlu-C18 diacid])LLDYMMQ[αMeR]DFVQWLLEGGPSSGAPPPS-NH2; N-terminus assumed): at human GLP-1R, the “activity on GLP-1R compared to SEQ ID NO. 77, in words” value is “increased”; the “Ratio vs. GLP-1R, GLP-1R” value is recorded as 100; the “Relative % to native ligand, GLP-1R” value is reported as 722%. Moreover, at human GCGR, the “Ratio vs. GLP-1R, GCGR” value came to 12 and the “Relative % to native ligand, GCGR” value is listed as 89%. On human GIPR, the “activity on GIPR compared to SEQ ID NO. 77, in words” value is “increased”; the “Ratio vs. GLP-1R, GIPR” value is given as 65; the “Relative % to native ligand, GIPR” value stood at 472%. For the same compound, the half-life in series [1] is 1.18 h. In the series on FaSSIF/P, the “stability against FaSSIF/P compared with SEQ ID NO. 77, in words” value was “improved stability”. Further, the half-life in series [2] is greater than 7.23 h. In addition, the “stability against trypsin compared with SEQ ID NO. 77, in words” value in the series with trypsin was “improved stability”. For the same compound, in [3], the “efficacy in the NASH model, in words” value is given as “most excellent efficacy”; the “hepatic steatosis score compared to CDA-HFD control, in words” value is on record as “significantly reduced”; the “scores of hepatocytes inflammation and NAS score, in words” value is on record as “statistically reduced; also recorded: most decreased”. Also, in series [3] (20 nmol/kg s.c. Q2D, 4 weeks), the “body weight compared to vehicle-treated control, in words” value is listed as “reduce body weight; also recorded: greatest weight loss”. In series [3] (end of treatment), the “liver enzymes and liver steatosis compared to vehicle-treated control, in words” value was “reduce liver enzymes and liver steatosis significantly”. In series [4], the “NAS score, in words” value is “statistically decreased more than the level of tirzepatide”; the “hepatic steatosis (histological score), in words” value was “significantly reduced”; the “liver weight, visceral fat weight, liver enzymes, and liver steatosis compared to vehicle-treated control, in words” value was “significantly reduced”.

As to `CSCC[C@H](NC(=O)[C@H](Cc1ccc(O)cc1)NC(=O)[C@H](CC(=O)O)NC(=O)[C@H](CC(C)C)NC(=O)[C@H](CC(C)C)NC(=O)[C@H](CCCCNC(=O)COCCOCCNC(=O)COCCOCCNC(=O)CC[C@H](NC(=O)CCCCCCCCCCCCCCCCC(=O)O)C(=O)O)NC(=O)[C@H](CO)NC(=O)[C@H](Cc1ccc(O)cc1)NC(=O)[C@H](CC(=O)O)NC(=O)[C@H](CO)NC(=O)[C@@H](NC(=O)[C@H](Cc1ccccc1)NC(=O)[C@@H](NC(=O)CNC(=O)[C@H](CCC(N)=O)NC(=O)C(C)(C)NC(=O)[C@@H](N)Cc1ccc(O)cc1)[C@@H](C)O)[C@@H](C)O)C(=O)N[C@@H](CCSC)C(=O)N[C@@H](CCC(N)=O)C(=O)N[C@@H](CCC(N)=O)C(=O)N[C@@H](CC(=O)O)C(=O)N[C@@H](Cc1ccccc1)C(=O)N[C@H](C(=O)N[C@@H](CCC(N)=O)C(=O)N[C@@H](Cc1c[nH]c2ccccc12)C(=O)N[C@@H](CC(C)C)C(=O)N[C@@H](CC(C)C)C(=O)N[C@@H](CCC(=O)O)C(=O)NCC(=O)NCC(=O)N1CCC[C@H]1C(=O)N[C@@H](CO)C(=O)N[C@@H](CO)C(=O)NCC(=O)N[C@@H](C)C(=O)N1CCC[C@H]1C(=O)N1CCC[C@H]1C(=O)N1CCC[C@H]1C(=O)N[C@@H](CO)C(N)=O)C(C)C` [compound 100] (H-Y[Aib]QGTFTSDYSK([AEEA-AEEA-γGlu-C18 diacid])LLDYMMQQDFVQWLLEGGPSSGAPPPS-NH2; N-terminus assumed), at human GLP-1R, the “activity on GLP-1R compared to SEQ ID NO. 77, in words” value is recorded as “decreased”; the “Ratio vs. GLP-1R, GLP-1R” value is reported as 100; the “Relative % to native ligand, GLP-1R” value was determined as 54%. Further, on human GCGR, the “Ratio vs. GLP-1R, GCGR” value is on record as 56 and the “Relative % to native ligand, GCGR” value is given as 30%. Further, at human GIPR, the “activity on GIPR compared to SEQ ID NO. 77, in words” value is recorded as “decreased”; the “Ratio vs. GLP-1R, GIPR” value was 103; the “Relative % to native ligand, GIPR” value is recorded as 55%. This compound came in with a half-life in [1] of 0.753 h. In addition, the half-life in [2] is greater than 7.23 h. The “stability against trypsin compared with SEQ ID NO. 77, in words” value in the series on trypsin was “increased half-lives”.

“GIP (native ligand) (from UniProt P09681 52-93)”: the EC50 (nM), cAMP assay in series [5] turned out to be 2.03 nM. In [6], this compound had an EC50 (nM), cAMP assay of 0.732 nM; an EC50, c-AMP release (FIG. 8C) of 240 pM; an EC50, c-AMP release (FIG. 9C) of 240 pM; an EC50, cAMP release (FIG. 7C) of 1780 pM. Moreover, the Percentage change in EC50 relative to GIP at human GIPR (%) in series [6] was determined as 100%.
